{
  "source": "patent US7875647B2",
  "about": "“Heteroaryl-pyrazole derivatives as cannabinoid CB1 receptor antagonists” (Green Cross Corporation, priority 2006, dated 2011)",
  "data": [
    {"target": "T1, Cannabinoid-1 receptor (CB1R) (Rattus norvegicus, UniProt P20272)", "T1 construct": "The tissue obtained from the brain of SD rats was homogenized; from tissue; host or cells: brain of SD rats (membrane pellet of the homogenate)", "T1 sequence (P20272 whole entry)": "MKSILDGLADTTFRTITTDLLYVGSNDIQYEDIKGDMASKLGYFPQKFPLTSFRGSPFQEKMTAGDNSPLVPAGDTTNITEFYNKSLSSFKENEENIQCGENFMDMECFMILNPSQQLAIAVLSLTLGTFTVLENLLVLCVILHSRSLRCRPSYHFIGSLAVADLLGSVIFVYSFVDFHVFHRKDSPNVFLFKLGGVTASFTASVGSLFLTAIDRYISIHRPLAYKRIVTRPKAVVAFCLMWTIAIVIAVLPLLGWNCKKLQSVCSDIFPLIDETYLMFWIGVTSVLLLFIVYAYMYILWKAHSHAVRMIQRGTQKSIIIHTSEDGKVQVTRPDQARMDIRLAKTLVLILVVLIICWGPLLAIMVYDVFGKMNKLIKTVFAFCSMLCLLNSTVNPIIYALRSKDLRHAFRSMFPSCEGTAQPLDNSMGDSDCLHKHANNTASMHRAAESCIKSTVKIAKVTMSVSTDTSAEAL", "test": "Cannabinoid-1 receptor (CB1R) binding affinity assay ([3H]CP-55940, rat CB-1 receptor binding protocol)", "details": "IC50(nM), brain tissue of SD rats, [3H]CP-55940, 30° C. 60 min", "units": {"IC50": "nM"}, "values": [
      {"smiles": "CCCCC(C)c1nnc(-c2nn(-c3ccccc3Cl)c(-c3ccc(Cl)cc3)c2C)s1", "note": "(centres unmarked) [Example 411, 2-(1-(2-chlorophenyl)-5-(4-chlorophenyl)-4-methyl-1H-pyrazol-3-yl)-5-(hexan-2-yl)-1,3,4-thiadiazole]", "IC50": 13.5},
      {"smiles": "CCCC(C)c1nnc(-c2nn(-c3ccc(Cl)cc3Cl)c(-c3ccc(Cl)cc3)c2CC)s1", "note": "(centres unmarked) [Example 412, 2-(5-(4-chlorophenyl)-1-(2,4-dichlorophenyl)-4-ethyl-1H-pyrazol-3-yl)-5-(pentan-2-yl)-1,3,4-thiadiazole]", "IC50": 11}
    ]},
    {"target": "T1, Cannabinoid-1 receptor (CB1R)", "test": "Cannabinoid-1 receptor (CB1R) binding affinity assay ([3H]CP-55940, rat CB-1 receptor binding protocol)", "details": "brain tissue of SD rats, [3H]CP-55940, 30° C. 60 min; read-out: IC50", "units": {"IC50": "nM"}, "values": [
      {"smiles": "Cc1c(-c2nnc(C(C)(C)C)s2)nn(-c2ccccc2Cl)c1-c1ccc(Cl)cc1", "note": "[Example 405, 2-tert-butyl-5-(1-(2-chlorophenyl)-5-(4-chlorophenyl)-4-methyl-1H-pyrazol-3-yl)-1,3,4-thiadiazole]", "IC50": 14.7},
      {"smiles": "CCCCC(C)(C)c1nnc(-c2nn(-c3ccc(Cl)cc3Cl)c(-c3ccc(Cl)cc3)c2C)s1", "note": "[Example 406, 2-(5-(4-chlorophenyl)-1-(2,4-dichlorophenyl)-4-methyl-1H-pyrazol-3-yl)-5-(2-methylhexan-2-yl)-1,3,4-thiadiazole]", "IC50": 27.4},
      {"smiles": "CCC(C)c1nnc(-c2nn(-c3ccccc3Cl)c(-c3ccc(Cl)cc3)c2C)s1", "note": "(centres unmarked) [Example 407, 2-sec-butyl-5-(1-(2-chlorophenyl)-5-(4-chlorophenyl)-4-methyl-1H-pyrazol-3-yl)-1,3,4-thiadiazole]", "IC50": 18.4},
      {"smiles": "Cc1c(-c2nnc(C3CCCCC3)s2)nn(-c2ccccc2Cl)c1-c1ccc(Cl)cc1", "note": "[Example 408, 2-(1-(2-chlorophenyl)-5-(4-chlorophenyl)-4-methyl-1H-pyrazol-3-yl)-5-cyclohexyl-1,3,4-thiadiazole]", "IC50": 61},
      {"smiles": "Cc1c(-c2nnc(C3CCC3)s2)nn(-c2ccccc2Cl)c1-c1ccc(Cl)cc1", "note": "[Example 409, 2-(1-(2-chlorophenyl)-5-(4-chlorophenyl)-4-methyl-1H-pyrazol-3-yl)-5-cyclobutyl-1,3,4-thiadiazole]", "IC50": 58.1},
      {"smiles": "CCC(C)(C)c1nnc(-c2nn(-c3ccccc3Cl)c(-c3ccc(Cl)cc3)c2C)s1", "note": "[Example 410, 2-(1-(2-chlorophenyl)-5-(4-chlorophenyl)-4-methyl-1H-pyrazol-3-yl)-5-tert-pentyl-1,3,4-thiadiazole]", "IC50": 11.7},
      {"smiles": "CCCC(C)c1nnc(-c2nn(-c3ccc(Cl)cc3Cl)c(-c3ccc(Br)cc3)c2C)s1", "note": "(centres unmarked) [Example 413, 2-(5-(4-bromophenyl)-1-(2,4-dichlorophenyl)-4-methyl-1H-pyrazol-3-yl)-5-(pentan-2-yl)-1,3,4-thiadiazole]", "IC50": 14.6},
      {"smiles": "CCCC(C)c1nnc(-c2nn(-c3ccc(Cl)cc3Cl)c(-c3ccc(Br)cc3)c2CC)s1", "note": "(centres unmarked) [Example 414, 2-(5-(4-bromophenyl)-1-(2,4-dichlorophenyl)-4-ethyl-1H-pyrazol-3-yl)-5-(pentan-2-yl)-1,3,4-thiadiazole]", "IC50": 9.18},
      {"smiles": "CCCCC(C)(C)c1nnc(-c2nn(-c3ccccc3Cl)c(-c3ccc(Cl)cc3)c2C)s1", "note": "[Example 415, 2-(1-(2-chlorophenyl)-5-(4-chlorophenyl)-4-methyl-1H-pyrazol-3-yl)-5-(2-methylhexan-2-yl)-1,3,4-thiadiazole]", "IC50": 8.02},
      {"smiles": "Cc1c(-c2nnc(C(C)(C)c3ccccc3)s2)nn(-c2ccccc2Cl)c1-c1ccc(Cl)cc1", "note": "[Example 416, 2-(1-(2-chlorophenyl)-5-(4-chlorophenyl)-4-methyl-1H-pyrazol-3-yl)-5-(2-phenylpropan-2-yl)-1,3,4-thiadiazole]", "IC50": 9.27},
      {"smiles": "CCC(C)(C)c1nnc(-c2nn(-c3ccc(Cl)cc3)c(-c3ccc(Br)cc3)c2C)s1", "note": "[Example 417, 2-(5-(4-bromophenyl)-1-(4-chlorophenyl)-4-methyl-1H-pyrazol-3-yl)-5-tert-pentyl-1,3,4-thiadiazole]", "IC50": 134},
      {"smiles": "CCC(C)c1nnc(-c2nn(-c3ccc(Cl)cc3)c(-c3ccc(Br)cc3)c2C)s1", "note": "(centres unmarked) [Example 418, 2-(5-(4-bromophenyl)-1-(4-chlorophenyl)-4-methyl-1H-pyrazol-3-yl)-5-sec-butyl-1,3,4-thiadiazole]", "IC50": 465}
    ]}
  ]
}
